Results taken from patent publication US8173654B2, “Triazolopyridazine compounds” (Janssen Pharmaceutica N.V., priority 2005, dated 2012).

Assays:
[1] = target: T1, c-Met (Homo sapiens, UniProt P08581); test: Cell based ELISA assay for HGF stimulated c-Met phosphorylation in S114 cells; set-up: expressed in transfected cells; host or cells: S114 (murine NIH 3T3 derived); details: read-out: c-Met Cell ELISA IC-50
Method: A cell based ELISA assay was developed to evaluate the ability of compounds to inhibit HGF stimulated c-Met phosphorylation in cells.
S114 cells were seeded to a 96 well tissue culture treated dish at a concentration of 5×10^4 per well. After a 16-20 hour incubation, culture medium was removed and replaced with serum free medium supplemented with 0.5% BSA. Test compound was then added and incubated with the cells for 60 minutes, followed by the addition of 1 μl HGF at […] for 15 minutes. […] Following another 1 hour incubation at room temperature the plates were washed three times with Delfia wash buffer (Perkin Elmer). After the final wash, […] of Delfia enhancer solution (Perkin Elmer) was added and allowed to incubate for 60 minutes. Plates were read on an LJL Analyst instrument (Molecular Devices; Sunnyvale, Calif.) with filter settings of 360 excitation, 620 emission, and 410 dichroic. IC50 values were calculated using Graphpad Prism software (Graphpad Software; San Diego, Calif.).
Target sequence in this assay (P08581 25-1390): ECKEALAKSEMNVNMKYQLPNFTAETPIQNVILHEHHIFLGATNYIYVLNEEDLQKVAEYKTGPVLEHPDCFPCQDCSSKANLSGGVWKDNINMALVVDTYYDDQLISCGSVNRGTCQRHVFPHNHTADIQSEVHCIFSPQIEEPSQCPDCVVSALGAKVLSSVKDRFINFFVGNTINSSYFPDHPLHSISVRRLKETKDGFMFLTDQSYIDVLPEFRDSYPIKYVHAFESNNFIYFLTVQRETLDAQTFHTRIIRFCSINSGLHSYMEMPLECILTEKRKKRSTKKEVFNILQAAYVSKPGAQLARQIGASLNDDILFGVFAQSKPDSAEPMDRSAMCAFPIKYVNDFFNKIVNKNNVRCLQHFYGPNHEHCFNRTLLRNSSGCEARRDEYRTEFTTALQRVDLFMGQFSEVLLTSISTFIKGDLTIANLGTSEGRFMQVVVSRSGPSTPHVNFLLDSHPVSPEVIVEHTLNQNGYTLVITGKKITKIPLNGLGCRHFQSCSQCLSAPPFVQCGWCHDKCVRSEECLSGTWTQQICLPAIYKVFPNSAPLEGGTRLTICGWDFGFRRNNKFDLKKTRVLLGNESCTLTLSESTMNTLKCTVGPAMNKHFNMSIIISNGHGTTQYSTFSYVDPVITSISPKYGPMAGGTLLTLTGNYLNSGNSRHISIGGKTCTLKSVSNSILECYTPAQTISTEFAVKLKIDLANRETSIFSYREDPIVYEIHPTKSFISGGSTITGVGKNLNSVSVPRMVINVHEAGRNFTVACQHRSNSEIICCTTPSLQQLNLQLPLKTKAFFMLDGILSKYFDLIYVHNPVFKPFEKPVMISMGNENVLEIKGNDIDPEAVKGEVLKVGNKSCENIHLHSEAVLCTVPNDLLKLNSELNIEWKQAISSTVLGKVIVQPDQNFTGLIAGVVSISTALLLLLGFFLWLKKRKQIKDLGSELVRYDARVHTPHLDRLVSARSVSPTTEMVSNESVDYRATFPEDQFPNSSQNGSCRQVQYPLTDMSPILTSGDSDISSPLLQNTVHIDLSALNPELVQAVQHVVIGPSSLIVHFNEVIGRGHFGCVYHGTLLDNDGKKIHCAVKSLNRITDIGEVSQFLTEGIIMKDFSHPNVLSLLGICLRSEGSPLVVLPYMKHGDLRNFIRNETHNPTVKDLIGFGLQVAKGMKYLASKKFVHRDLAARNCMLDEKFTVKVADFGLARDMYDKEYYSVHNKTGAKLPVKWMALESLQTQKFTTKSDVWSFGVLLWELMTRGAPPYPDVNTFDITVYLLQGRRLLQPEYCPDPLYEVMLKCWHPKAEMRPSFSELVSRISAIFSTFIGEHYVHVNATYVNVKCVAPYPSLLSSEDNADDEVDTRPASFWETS

[2] = target: T1, c-Met; test: Delfia autophosphorylation kinase assay on the c-Met; assay type: biochemical; set-up: The purified His6 tagged cytoplasmic domain of c-Met was diluted to a concentration of 500 ng/ml; host or cells: Sf9 insect cells (baculovirus, pFastBacHTa); details: His6 tagged cytoplasmic domain of c-Met, 1 μM ATP; read-out: cMet Delfia autophos IC-50
Method: A DELFIA time resolved fluorescence assay was developed for screening of compounds that decreases the autophosphorylation thus the kinase activity of c-Met. The DELFIA assay is non-radioactive. The autophosphorylation of the c-Met is measured by an anti-phosphotyrosine antibody coupled to an Europium tag.
A major advantage of this format is that it allowed for the development of an autophosphorylation assay using Ni-chelate plates which bind the hexa-his tag on the recombinant Met kinase. The autophosphorylation assay allows one to use a known substrate, Met kinase itself, for the phosphorylation.
The assay procedure for screening is as follows. The purified His6 tagged cytoplasmic domain of c-Met was diluted to a concentration of 500 ng/ml in enzyme dilution buffer (50 mM Tris-HCl, pH8.0, 0.1% BSA) and dispensed to assay plates at a volume of 50 μl per well. Black opaque HisGrab Nickel coated 96 well plates (Pierce, Rockford, Ill.) were selected for use. Next, 2.5 μl of compound in 40% DMSO was added to test wells, 2.5 μl of 40% DMSO only was added to the negative control wells. The autophosphorylation reaction was initiated upon the addition of 50 μl of reaction buffer, 50 mM Tris-HCl, pH 8.0, 10 mM MgCl2, 0.1 mM Na3VO4, 1 mM DTT, 1 μM ATP. Plates were incubated at room temperature for 1 hour followed by 2 washes with 200 μl/well of PBS. Europium conjugated anti-phosphotyrosine antibody, Eu-PY20 from Perkin Elmer was diluted to 50 ng/ml in Delfia AB buffer (Perkin Elmer, Boston, Mass.), added to the 96 well assay plates at a volume of 100 μl/well, and incubated at room temperature for 2 hours. Assay plates were then washed 4 times each with 200 μl/well of Delfia wash buffer (Perkin Elmer). After the final wash 150 μl of Delfia Enhancement solution (Perkin Elmer) was added to each well of the assay plate and incubated at room temperature for 1 hour. Plates were read on an LJL Analyst instrument (Molecular Devices; Sunnyvale, Calif.) with filter settings of 360 excitation, 620 emission, and 410 dichroic. IC50 values were calculated using Graphpad Prism software (Graphpad Software; San Diego, Calif.).
Target sequence in this assay (P08581 956-1390 limits assumed): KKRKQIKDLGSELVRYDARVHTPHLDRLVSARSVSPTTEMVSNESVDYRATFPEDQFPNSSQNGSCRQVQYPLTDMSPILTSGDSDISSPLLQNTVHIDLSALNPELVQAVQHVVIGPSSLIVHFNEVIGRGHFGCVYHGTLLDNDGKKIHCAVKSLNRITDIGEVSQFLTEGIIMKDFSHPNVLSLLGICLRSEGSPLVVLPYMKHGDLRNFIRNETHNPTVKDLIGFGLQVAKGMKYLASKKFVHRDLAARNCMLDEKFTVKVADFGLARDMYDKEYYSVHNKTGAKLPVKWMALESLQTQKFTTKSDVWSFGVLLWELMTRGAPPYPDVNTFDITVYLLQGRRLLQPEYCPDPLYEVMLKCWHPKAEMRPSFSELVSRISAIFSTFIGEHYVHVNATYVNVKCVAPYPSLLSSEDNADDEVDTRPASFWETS

SMILES	IC50 [1] [nM]	IC50 [2] [nM]
CS(=O)(=O)N1CCN(C(=O)c2ccc(-c3ccc4nnc(Cc5ccc6ncccc6c5)n4n3)s2)CC1 [Example 56, (4-Methanesulfonyl-piperazin-1-yl)-[5-(3-quinolin-6-ylmethyl-[1,2,4]triazolo[4,3-b]pyridazin-6-yl)-thiophen-2-yl]-methanone]	23	0.9
COc1ccc(C(F)(F)c2nnc3ccc(-c4cccs4)nn23)cc1 [Example 58, 3-[Difluoro-(4-methoxy-phenyl)-methyl]-6-thiophen-2-yl-[1,2,4]triazolo[4,3-b]pyridazine]	314	95
FC(F)(c1ccc2ncccc2c1)c1nnc2ccc(-c3cccnc3)nn12 [Example 59, 6-[Difluoro-(6-pyridin-3-yl-[1,2,4]triazolo[4,3-b]pyridazin-3-yl)-methyl]-quinoline]	8	3
Cn1cc(-c2ccc3nnc(Cc4ccc5c(c4)CCO5)n3n2)cn1 [Example 62, 3-(2,3-Dihydro-benzofuran-5-ylmethyl)-6-(1-methyl-1H-pyrazol-4-yl)-[1,2,4]triazolo[4,3-b]pyridazine]	270	20
c1cnc2ccc(Cc3nnc4ccc(-c5cncnc5)nn34)cc2c1 [Example 64, 6-(6-Pyrimidin-5-yl-[1,2,4]triazolo[4,3-b]pyridazin-3-ylmethyl)-quinoline]	170	17
c1cnc2ccc(Cc3nnc4ccc(-c5cnc6ccccc6c5)nn34)cc2c1 [Example 65, 6-(6-Quinolin-3-yl-[1,2,4]triazolo[4,3-b]pyridazin-3-ylmethyl)-quinoline]	2	0.3
FC(F)(c1ccc2ncccc2c1)c1nnc2ccc(-c3cnc4ccccc4c3)nn12 [Example 66, 6-[Difluoro-(6-quinolin-3-yl-[1,2,4]triazolo[4,3-b]pyridazin-3-yl)-methyl]-quinoline]	5	0.9
COc1ccc(Cn2cnc3ccc(Cc4nnc5ccc(-c6cccnc6)nn45)cc3c2=O)cc1 [Example 68, 3-(4-Methoxy-benzyl)-6-(6-pyridin-3-yl-[1,2,4]triazolo[4,3-b]pyridazin-3-ylmethyl)-3H quinazolin-4-one]	30	2
O=c1[nH]cnc2ccc(Cc3nnc4ccc(-c5cccnc5)nn34)cc12 [Example 69, 6-(6-Pyridin-3-yl-[1,2,4]triazolo[4,3-b]pyridazin-3-ylmethyl)-3H-quinazolin-4-one]	> 1000	17
Cn1cc(-c2ccc3nnc(Cc4ccc5ncncc5c4)n3n2)cn1 [Example 70, 6-[6-(1-Methyl-1H-pyrazol-4-yl)-[1,2,4]triazolo[4,3-b]pyridazin-3-ylmethyl]-quinazoline]	140	25
Cn1cc(-c2ccc3nnc(Cc4ccc5nccnc5c4)n3n2)cn1 [Example 71, 6-[6-(1-Methyl-1H-pyrazol-4-yl)-[1,2,4]triazolo[4,3-b]pyridazin-3-ylmethyl]-quinoxaline]	99	20
c1cnc2ccc(Cc3nnc4ccc(-c5cc6ccccc6s5)nn34)cc2c1 [Example 72, 6-(6-Benzo[b]thiophen-2-yl-[1,2,4]triazolo[4,3-b]pyridazin-3-ylmethyl)-quinoline]	0.2	0.3
[O-][n+]1cccc2cc(Cc3nnc4ccc(-c5cn[nH]c5)nn34)ccc21 [Example 73, 6-[6-(1H-Pyrazol-4-yl)-[1,2,4]triazolo[4,3-b]pyridazin-3-ylmethyl]-quinolin-1-ol]	0.5	0.1
OCCCn1cc(-c2ccc3nnc(Cc4ccc5ncccc5c4)n3n2)cn1 [Example 75, 3-[4(3-Quinolin-6-ylmethyl-[1,2,4]triazolo[4,3-b]pyridazin-6-yl)-pyrazol-1-yl]-propan-1-ol]	60	0.8
c1cnc2ccc(Cc3nnc4ccc(-c5cn[nH]c5)nn34)cc2c1 [Example 76, 6-[6-(1H-Pyrazol-4-yl)-[1,2,4]triazolo[4,3-b]pyridazin-3-ylmethyl]-quinoline]	180	4
Clc1ccc(-c2ccc3nnc(Cc4ccc5ncccc5c4)n3n2)s1 [Example 77]	2	1.5
Cc1nc2ccc(-c3ccc4nnc(Cc5ccc6ncccc6c5)n4n3)cc2[nH]1 [Example 79, 6-[6-(2-Methyl-3H-benzoimidazol-5-yl)-[1,2,4]triazolo[4,3-b]pyridazin-3-ylmethyl]-quinoline]	3300	30
Cn1ccc2cc(-c3ccc4nnc(Cc5ccc6ncccc6c5)n4n3)ccc21 [Example 85, 6-[6-(1-Methyl-1H-indol-5-yl)-[1,2,4]triazolo[4,3-b]pyridazin-3-ylmethyl]-quinoline]	260	53
Cc1cc(-c2ccc3nnc(Cc4ccc5ncccc5c4)n3n2)ccn1 [Example 87, 6-[6-(2-Methyl-pyridin-4-yl)-[1,2,4]triazolo[4,3-b]pyridazin-3-ylmethyl]-quinoline]	4	0.6
Nc1ccc(-c2ccc3nnc(Cc4ccc5ncccc5c4)n3n2)cn1 [Example 88, 5-(3-Quinolin-6-ylmethyl-[1,2,4]triazolo[4,3-b]pyridazin-6-yl)-pyridin-2-ylamine]	50	2
COc1ccc(-c2ccc3nnc(Cc4ccc5ncccc5c4)n3n2)cn1 [Example 89, 6-[6-(6-Methoxy-pyridin-3-yl)-[1,2,4]triazolo[4,3-b]pyridazin-3-ylmethyl]-quinoline]	230	4
O=c1ccc(-c2ccc3nnc(Cc4ccc5ncccc5c4)n3n2)c[nH]1 [Example 90, 5-(3-Quinolin-6-ylmethyl-[1,2,4]triazolo[4,3-b]pyridazin-6-yl)-1H-pyridin-2-one]	540	3
Cc1nc2ccc(Cc3nnc4ccc(-c5cccnc5)nn34)cc2s1 [Example 92, 3-(2-Methyl-benzothiazol-6-ylmethyl)-6-pyridin-3-yl-[1,2,4]triazolo[4,3-b]pyridazine]	10	4
Cn1cc(-c2ccc3nnc(Cc4ccc5nc(N)sc5c4)n3n2)cn1 [Example 93, 6-[6-(1-Methyl-1H-pyrazol-4-yl)-[1,2,4]triazolo[4,3-b]pyridazin-3-ylmethyl]-benzothiazol-2-ylamine]	130	4
CN(C)c1nc2ccc(Cc3nnc4ccc(-c5cnn(C)c5)nn34)cc2s1 [Example 94, Dimethyl-{6-[6-(1-methyl-1H-pyrazol-4-yl)-[1,2,4]triazolo[4,3-b]pyridazin-3-ylmethyl]-benzothiazol-2-yl}-amine]	640	30
Clc1cc(-c2ccc3nnc(Cc4ccc5ncccc5c4)n3n2)ccn1 [Example 95, 6-[6-(2-Chloro-pyridin-4-yl)-[1,2,4]triazolo[4,3-b]pyridazin-3-ylmethyl]-quinoline]	9	1
N#Cc1ccc(-c2ccc3nnc(Cc4ccc5ncccc5c4)n3n2)cn1 [Example 96, 5-(3-Quinolin-6-ylmethyl-[1,2,4]triazolo[4,3-b]pyridazin-6-yl)-pyridine-2-carbonitrile]	160	12
C#Cc1cc(-c2ccc3nnc(C(F)(F)c4ccc5ncccc5c4)n3n2)ccn1 [Example 100, 6-{[6-(2-Ethynyl-pyridin-4-yl)-[1,2,4]triazolo[4,3-b]pyridazin-3-yl]-difluoro-methyl}-quinoline]	140	5
